Assays:
HBsAg = experiment: PHH natural infection assay, HBsAg (alphalisa); type: cell-based, HBV; conditions: Hepatitis B virus, Hepatocyte, read-out: HBsAg IC50, HBV-infected primary human hepatocytes, supernatant, alphalisa
In short: (§1)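 Cryopreserved PHH plated 24 h, infected with HBV at 200 GE/cell plus 4% PEG8000 for 24 h, then sandwich-cultured 72 h with 0.25 mg/mL matrix gel. Compounds at varied concentrations applied twice at 72-h intervals. Supernatant HBsAg and HBeAg measured by AlphaLISA with specific antibodies.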

HBeAg = experiment: PHH natural infection assay, HBeAg (alphalisa); type: cell-based, HBV; conditions: Hepatitis B virus, Hepatocyte, read-out: HBeAg IC50, HBV-infected primary human hepatocytes, supernatant, alphalisa
In short: as §1

[1] = Cytotoxicity in PHH natural infection assay (Cell Counting Kit-8); type: cell-based; conditions: HBV-infected primary human hepatocytes, CCK8
In short: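 HBV-infected primary human hepatocytes (200 GE/cell, 4% PEG8000, 24 h), sandwich-cultured 72 h, then given compound-containing medium twice at 72 h intervals. Cytotoxicity read by CCK-8 at end of treatment.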

Structure (SMILES)	IC50 (HBsAg) [µM]	IC50 (HBeAg) [µM]	CC50 at 144 h [1] [µM]
CN(C)C(=O)c1cc(C(=O)NC2CC3(C2)CC(c2nc4cc(Cl)ccc4o2)C3)ccn1 (stereo not drawn) [Example 103, N4-[6-(5-chloro-1,3-benzoxazol-2-yl)spiro[3.3]heptan-2-yl]-N2,N2-dimethyl-pyridine-2,4-dicarboxamide]	5.63	4.02	> 10
N=C(NO)c1cc(C(=O)NC2CC3(C2)CC(c2nc4cc(Cl)ccc4o2)C3)ccn1 (stereo not drawn) [Example 95, N-[6-(5-chloro-1,3-benzoxazol-2-yl)spiro[3.3]heptan-2-yl]-2-(N-hydroxycarbamimidoyl)pyridine-4-carboxamide]	8.25	6.25	> 10
O=C(NC1CC2(C1)CC(c1nc3cc(Cl)ccc3o1)C2)C1CCCS1(=O)=O (stereo not drawn) [Example 42, N-[6-(5-chloro-1,3-benzoxazol-2-yl)spiro[3.3]heptan-2-yl]-1,1-dioxo-thiolane-2-carboxamide]	9.7	5.67	> 100
CC(C)S(=O)(=O)NC1CC2(C1)CC(c1nc3cc(Cl)ccc3o1)C2 (stereo not drawn) [Example 58, N-[6-(5-chloro-1,3-benzoxazol-2-yl)spiro[3.3]heptan-2-yl]propane-2-sulfonamide]	6.19	5.97	> 100
CS(=O)(=O)c1cncc(C(=O)NC2CC3(C2)CC(c2nc4cc(Cl)ccc4o2)C3)c1 (stereo not drawn) [Example 24, N-[6-(5-chloro-1,3-benzoxazol-2-yl)spiro[3.3]heptan-2-yl]-5-methylsulfonyl-pyridine-3-carboxamide]	5.99	3.73	> 100
CC(C)Oc1cc(C(=O)NC2CC3(C2)CC(c2nc4cc(Cl)ccc4o2)C3)ccn1 (stereo not drawn) [Example 20, N-[6-(5-chloro-1,3-benzoxazol-2-yl)spiro[3.3]heptan-2-yl]-2-isopropoxy-pyridine-4-carboxamide]	1.92	1.26	> 10
CN1CCC(C(=O)NC2CC3(C2)CC(c2nc4cc(Cl)ccc4o2)C3)CC1=O (stereo not drawn) [Example 34, N-[6-(5-chloro-1,3-benzoxazol-2-yl)spiro[3.3]heptan-2-yl]-1-methyl-2-oxo-piperidine-4-carboxamide]	8.69	4.42	> 100
O=C(NC1CC2(C1)CC(c1nc3cc(Cl)ccc3o1)C2)c1cccnc1 (stereo not drawn) [Example 2, N-[6-(5-chloro-1,3-benzoxazol-2-yl)spiro[3.3]heptan-2-yl]pyridine-3-carboxamide]	6.2	5.25	68.3
O=C(NC1CC2(C1)CC(c1nc3cc(Cl)ccc3o1)C2)C1CCS(=O)(=O)CC1 (stereo not drawn) [Example 53, N-[6-(5-chloro-1,3-benzoxazol-2-yl)spiro[3.3]heptan-2-yl]-1,1-dioxo-thiane-4-carboxamide]	6.7	5.23	> 100

Source: patent US20230286968A1, “ARYLOXAZOLO SPIRAL RING DERIVATIVES FOR THE TREATMENT AND PROPHYLAXIS OF HEPATITIS B VIRUS INFECTION” (Hoffmann-La Roche Inc., priority 2020, published 2023)
